From ChEMBL document CHEMBL4507273 (2021)

Tests used:
Histamine H1 receptor = Histamine H1 receptor (Homo sapiens, UniProt P35367); details: Compound concentration 10.0 uM
[1] = target: Ephrin type-A receptor 5 (Homo sapiens) (UniProt P54756); details: Compound concentration 1000.0 nM
[2] = target: Mitogen-activated protein kinase kinase kinase kinase 2 (Homo sapiens) (UniProt Q12851); details: Compound concentration 1000.0 nM
[3] = target: Ribosomal protein S6 kinase alpha-5 (Homo sapiens) (UniProt O75582); details: Compound concentration 1000.0 nM
[4] = target: Serine/threonine-protein kinase tousled-like 1 (Homo sapiens) (UniProt Q9UKI8); details: Compound concentration 1000.0 nM
[5] = target: 5-hydroxytryptamine receptor 3A (Homo sapiens) (UniProt P46098); details: Compound concentration 10.0 uM
[6] = target: Ribosomal protein S6 kinase alpha-4 (Homo sapiens) (UniProt O75676); details: Compound concentration 1000.0 nM
[7] = target: Calcium/calmodulin-dependent protein kinase type IV (Homo sapiens) (UniProt Q16566); details: Compound concentration 1000.0 nM
[8] = tested on: Epidermal growth factor receptor (Homo sapiens), P00533 [UNDEFINED MUTATION]; details: Compound concentration 1000.0 nM
[9] = tested on: Leucine-rich repeat serine/threonine-protein kinase 2 (Homo sapiens), Q5S007 [G2019S]; details: Compound concentration 1000.0 nM
Sequence of Leucine-rich repeat serine/threonine-protein kinase 2 (Homo sapiens), Q5S007 [G2019S] (Q5S007 whole entry G2019S): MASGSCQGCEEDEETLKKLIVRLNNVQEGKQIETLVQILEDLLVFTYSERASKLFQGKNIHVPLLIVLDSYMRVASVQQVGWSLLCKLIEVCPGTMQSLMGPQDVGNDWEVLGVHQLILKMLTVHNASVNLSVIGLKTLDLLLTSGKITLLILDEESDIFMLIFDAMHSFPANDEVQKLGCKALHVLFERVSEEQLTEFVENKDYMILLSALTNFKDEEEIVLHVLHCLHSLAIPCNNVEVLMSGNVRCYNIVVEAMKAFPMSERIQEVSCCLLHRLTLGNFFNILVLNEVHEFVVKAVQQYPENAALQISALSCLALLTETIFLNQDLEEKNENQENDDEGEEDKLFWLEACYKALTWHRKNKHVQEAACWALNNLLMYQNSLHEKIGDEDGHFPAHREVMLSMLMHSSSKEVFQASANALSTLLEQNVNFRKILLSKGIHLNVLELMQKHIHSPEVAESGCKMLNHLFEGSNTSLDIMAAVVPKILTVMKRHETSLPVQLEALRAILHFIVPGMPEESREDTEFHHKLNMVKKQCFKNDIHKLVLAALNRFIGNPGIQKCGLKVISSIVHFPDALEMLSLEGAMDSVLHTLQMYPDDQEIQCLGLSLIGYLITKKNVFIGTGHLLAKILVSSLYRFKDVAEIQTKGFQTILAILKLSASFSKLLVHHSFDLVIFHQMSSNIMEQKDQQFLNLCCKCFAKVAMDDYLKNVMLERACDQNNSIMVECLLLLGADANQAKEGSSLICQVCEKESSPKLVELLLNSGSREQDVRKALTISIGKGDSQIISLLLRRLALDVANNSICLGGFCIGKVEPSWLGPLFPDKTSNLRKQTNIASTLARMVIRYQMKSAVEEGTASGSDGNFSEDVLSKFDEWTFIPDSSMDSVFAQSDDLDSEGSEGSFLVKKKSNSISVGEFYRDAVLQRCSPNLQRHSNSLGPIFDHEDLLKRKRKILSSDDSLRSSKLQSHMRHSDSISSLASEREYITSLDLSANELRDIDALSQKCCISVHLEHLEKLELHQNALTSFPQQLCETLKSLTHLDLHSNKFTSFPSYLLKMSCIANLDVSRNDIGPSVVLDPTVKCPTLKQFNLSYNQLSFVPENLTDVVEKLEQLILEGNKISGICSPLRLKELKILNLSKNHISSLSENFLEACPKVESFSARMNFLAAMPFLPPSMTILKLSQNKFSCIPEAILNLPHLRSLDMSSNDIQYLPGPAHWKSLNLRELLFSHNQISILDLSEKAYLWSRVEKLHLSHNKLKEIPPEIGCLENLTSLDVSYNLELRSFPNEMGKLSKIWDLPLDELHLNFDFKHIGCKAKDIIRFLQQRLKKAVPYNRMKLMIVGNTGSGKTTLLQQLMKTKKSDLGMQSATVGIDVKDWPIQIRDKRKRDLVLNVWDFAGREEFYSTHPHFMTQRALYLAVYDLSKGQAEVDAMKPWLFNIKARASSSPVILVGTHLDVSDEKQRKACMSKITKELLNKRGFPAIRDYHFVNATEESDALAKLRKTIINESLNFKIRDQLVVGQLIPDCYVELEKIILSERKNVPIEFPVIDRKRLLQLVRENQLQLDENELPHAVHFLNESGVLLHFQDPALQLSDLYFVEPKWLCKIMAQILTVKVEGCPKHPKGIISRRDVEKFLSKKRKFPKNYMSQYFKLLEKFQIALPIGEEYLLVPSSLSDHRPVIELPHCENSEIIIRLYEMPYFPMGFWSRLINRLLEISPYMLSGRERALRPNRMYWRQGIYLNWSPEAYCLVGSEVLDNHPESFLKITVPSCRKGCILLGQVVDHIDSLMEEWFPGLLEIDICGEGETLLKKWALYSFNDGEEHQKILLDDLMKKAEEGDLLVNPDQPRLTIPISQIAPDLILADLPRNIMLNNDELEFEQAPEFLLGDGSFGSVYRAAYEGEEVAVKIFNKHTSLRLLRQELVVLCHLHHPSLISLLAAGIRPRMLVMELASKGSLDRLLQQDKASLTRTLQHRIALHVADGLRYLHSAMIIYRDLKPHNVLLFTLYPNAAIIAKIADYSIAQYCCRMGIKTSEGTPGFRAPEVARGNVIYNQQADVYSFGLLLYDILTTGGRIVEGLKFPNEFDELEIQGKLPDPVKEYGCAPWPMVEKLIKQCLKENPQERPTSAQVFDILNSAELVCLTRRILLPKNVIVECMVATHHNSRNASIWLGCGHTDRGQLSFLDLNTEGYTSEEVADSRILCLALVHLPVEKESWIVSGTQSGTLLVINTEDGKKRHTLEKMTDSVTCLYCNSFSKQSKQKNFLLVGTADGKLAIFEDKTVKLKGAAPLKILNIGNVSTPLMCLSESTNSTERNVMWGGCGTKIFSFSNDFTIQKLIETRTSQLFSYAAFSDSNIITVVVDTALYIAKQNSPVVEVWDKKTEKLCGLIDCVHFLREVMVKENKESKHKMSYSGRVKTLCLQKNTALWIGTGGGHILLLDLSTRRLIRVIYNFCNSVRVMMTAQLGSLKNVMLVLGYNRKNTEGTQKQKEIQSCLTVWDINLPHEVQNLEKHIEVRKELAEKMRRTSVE

[10] = target: Activin receptor type-2A (Homo sapiens) (UniProt P27037); details: Compound concentration 1000.0 nM
Sequence of Activin receptor type-2A (Homo sapiens) (P27037 whole entry): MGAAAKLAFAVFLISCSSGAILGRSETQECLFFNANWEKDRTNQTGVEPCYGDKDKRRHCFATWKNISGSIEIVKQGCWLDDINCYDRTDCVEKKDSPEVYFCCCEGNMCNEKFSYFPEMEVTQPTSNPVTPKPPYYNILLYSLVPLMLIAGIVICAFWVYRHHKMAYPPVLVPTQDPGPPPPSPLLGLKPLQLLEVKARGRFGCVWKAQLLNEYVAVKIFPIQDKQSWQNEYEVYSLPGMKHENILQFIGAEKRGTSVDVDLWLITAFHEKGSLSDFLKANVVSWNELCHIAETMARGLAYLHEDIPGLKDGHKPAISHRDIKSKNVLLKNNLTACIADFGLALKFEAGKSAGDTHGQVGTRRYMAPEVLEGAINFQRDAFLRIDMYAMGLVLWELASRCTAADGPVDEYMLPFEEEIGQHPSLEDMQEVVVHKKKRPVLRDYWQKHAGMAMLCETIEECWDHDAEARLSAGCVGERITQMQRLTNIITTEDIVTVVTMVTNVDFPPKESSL

[11] = target: Cyclin-dependent kinase 9 (Homo sapiens) (UniProt P50750); details: Compound concentration 1000.0 nM
[12] = target: Activin receptor type-1-like (Homo sapiens) (UniProt P37023); details: Compound concentration 1000.0 nM
[13] = target: Cyclin-dependent kinase 8 (Homo sapiens) (UniProt P49336); details: Compound concentration 1000.0 nM
[14] = target: T1, 5-hydroxytryptamine receptor 1A (Homo sapiens) (UniProt P08908); details: Compound concentration 10.0 uM
T1 sequence (whole entry): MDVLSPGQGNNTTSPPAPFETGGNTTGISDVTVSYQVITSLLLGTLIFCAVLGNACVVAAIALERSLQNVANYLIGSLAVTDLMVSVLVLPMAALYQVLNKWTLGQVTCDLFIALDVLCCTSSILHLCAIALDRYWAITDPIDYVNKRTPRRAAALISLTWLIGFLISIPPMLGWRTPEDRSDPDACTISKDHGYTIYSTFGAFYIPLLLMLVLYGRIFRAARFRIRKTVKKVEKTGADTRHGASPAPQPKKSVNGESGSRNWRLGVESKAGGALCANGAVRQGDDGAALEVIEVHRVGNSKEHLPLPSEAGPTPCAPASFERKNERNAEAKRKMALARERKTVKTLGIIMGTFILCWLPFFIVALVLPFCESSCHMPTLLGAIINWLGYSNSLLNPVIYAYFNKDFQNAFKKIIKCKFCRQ

[15] = target: Serine/threonine-protein kinase Nek5 (Homo sapiens) (UniProt Q6P3R8); details: Compound concentration 1000.0 nM
[16] = target: STE20/SPS1-related proline-alanine-rich protein kinase (Homo sapiens) (UniProt Q9UEW8); details: Compound concentration 1000.0 nM
[17] = tested on: Epidermal growth factor receptor (Homo sapiens), P00533 [L861Q]; details: Compound concentration 1000.0 nM
[18] = target: 5-hydroxytryptamine receptor 2B (Homo sapiens, UniProt P41595); details: Compound concentration 10.0 uM
[19] = target: Cyclin-dependent kinase-like 1 (Homo sapiens) (UniProt Q00532); details: Compound concentration 1000.0 nM
[20] = target: Cyclin-dependent kinase 2 homolog (Plasmodium falciparum (isolate 3D7)) (UniProt P61075); details: Compound concentration 1000.0 nM
[21] = target: Dual specificity mitogen-activated protein kinase kinase 1 (Homo sapiens) (UniProt Q02750); details: Compound concentration 1000.0 nM
[22] = target: Tyrosine-protein kinase Lyn (Homo sapiens) (UniProt P07948); details: Compound concentration 1000.0 nM
[23] = target: Serine/threonine-protein kinase PAK 1 (Homo sapiens) (UniProt Q13153); details: Compound concentration 1000.0 nM
[24] = target: Serine/threonine-protein kinase MAK (Homo sapiens) (UniProt P20794); details: Compound concentration 1000.0 nM
Sequence of Serine/threonine-protein kinase MAK (Homo sapiens) (P20794 whole entry): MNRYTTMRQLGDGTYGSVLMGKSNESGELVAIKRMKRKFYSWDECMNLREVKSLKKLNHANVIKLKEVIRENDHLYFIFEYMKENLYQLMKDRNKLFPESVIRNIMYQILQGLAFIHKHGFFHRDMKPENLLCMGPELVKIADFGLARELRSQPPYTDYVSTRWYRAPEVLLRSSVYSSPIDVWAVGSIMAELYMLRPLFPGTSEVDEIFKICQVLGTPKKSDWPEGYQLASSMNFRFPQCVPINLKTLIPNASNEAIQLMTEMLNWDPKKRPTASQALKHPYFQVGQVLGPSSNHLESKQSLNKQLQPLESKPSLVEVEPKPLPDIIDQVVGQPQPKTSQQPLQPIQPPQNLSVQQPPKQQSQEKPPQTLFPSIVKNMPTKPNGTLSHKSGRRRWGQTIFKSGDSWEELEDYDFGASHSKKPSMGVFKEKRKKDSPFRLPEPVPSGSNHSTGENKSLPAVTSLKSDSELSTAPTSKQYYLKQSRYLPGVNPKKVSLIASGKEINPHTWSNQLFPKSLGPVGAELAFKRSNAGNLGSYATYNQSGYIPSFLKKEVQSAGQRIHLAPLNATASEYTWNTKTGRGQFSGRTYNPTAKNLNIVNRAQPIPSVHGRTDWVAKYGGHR

[25] = target: Serine/threonine-protein kinase MARK2 (Homo sapiens) (UniProt Q7KZI7); details: Compound concentration 1000.0 nM
[26] = target: Mitogen-activated protein kinase 4 (Homo sapiens) (UniProt P31152); details: Compound concentration 1000.0 nM
[27] = target: Serine/threonine-protein kinase B-raf (Homo sapiens) (UniProt P15056); details: Compound concentration 1000.0 nM
[28] = target: Serine/threonine-protein kinase MARK1 (Homo sapiens) (UniProt Q9P0L2); details: Compound concentration 1000.0 nM
[29] = target: Casein kinase I isoform alpha-like (Homo sapiens) (UniProt Q8N752); details: Compound concentration 1000.0 nM
Sequence of Casein kinase I isoform alpha-like (Homo sapiens) (Q8N752 whole entry, canonical isoform): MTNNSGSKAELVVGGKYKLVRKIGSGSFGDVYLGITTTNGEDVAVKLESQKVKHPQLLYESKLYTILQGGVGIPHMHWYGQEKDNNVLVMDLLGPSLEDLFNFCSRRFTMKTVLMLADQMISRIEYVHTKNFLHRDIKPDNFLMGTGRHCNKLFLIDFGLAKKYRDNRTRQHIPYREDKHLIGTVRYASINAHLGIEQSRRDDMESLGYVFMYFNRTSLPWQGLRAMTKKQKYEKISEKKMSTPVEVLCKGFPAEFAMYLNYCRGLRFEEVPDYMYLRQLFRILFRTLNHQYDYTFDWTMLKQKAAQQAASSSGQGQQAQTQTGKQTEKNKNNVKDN

[30] = target: Phosphatidylinositol 4-phosphate 5-kinase type-1 alpha (Homo sapiens) (UniProt Q99755); details: Compound concentration 1000.0 nM
[31] = target: Serine/threonine-protein kinase MRCK beta (Homo sapiens) (UniProt Q9Y5S2); details: Compound concentration 1000.0 nM
[32] = target: MAP kinase-interacting serine/threonine-protein kinase 2 (Homo sapiens) (UniProt Q9HBH9); details: Compound concentration 1000.0 nM
[33] = target: Rho-associated protein kinase 1 (Homo sapiens) (UniProt Q13464); details: Compound concentration 1000.0 nM
[34] = tested on: Receptor-type tyrosine-protein kinase FLT3 (Homo sapiens), P36888 [UNDEFINED MUTATION]; details: Compound concentration 1000.0 nM
[35] = target: Phosphatidylinositol 5-phosphate 4-kinase type-2 gamma (Homo sapiens) (UniProt Q8TBX8); details: Compound concentration 1000.0 nM
[36] = tested on: Mast/stem cell growth factor receptor Kit (Homo sapiens), P10721 [D816H]; details: Compound concentration 1000.0 nM
Sequence of Mast/stem cell growth factor receptor Kit (Homo sapiens), P10721 [D816H] (P10721 whole entry D816H): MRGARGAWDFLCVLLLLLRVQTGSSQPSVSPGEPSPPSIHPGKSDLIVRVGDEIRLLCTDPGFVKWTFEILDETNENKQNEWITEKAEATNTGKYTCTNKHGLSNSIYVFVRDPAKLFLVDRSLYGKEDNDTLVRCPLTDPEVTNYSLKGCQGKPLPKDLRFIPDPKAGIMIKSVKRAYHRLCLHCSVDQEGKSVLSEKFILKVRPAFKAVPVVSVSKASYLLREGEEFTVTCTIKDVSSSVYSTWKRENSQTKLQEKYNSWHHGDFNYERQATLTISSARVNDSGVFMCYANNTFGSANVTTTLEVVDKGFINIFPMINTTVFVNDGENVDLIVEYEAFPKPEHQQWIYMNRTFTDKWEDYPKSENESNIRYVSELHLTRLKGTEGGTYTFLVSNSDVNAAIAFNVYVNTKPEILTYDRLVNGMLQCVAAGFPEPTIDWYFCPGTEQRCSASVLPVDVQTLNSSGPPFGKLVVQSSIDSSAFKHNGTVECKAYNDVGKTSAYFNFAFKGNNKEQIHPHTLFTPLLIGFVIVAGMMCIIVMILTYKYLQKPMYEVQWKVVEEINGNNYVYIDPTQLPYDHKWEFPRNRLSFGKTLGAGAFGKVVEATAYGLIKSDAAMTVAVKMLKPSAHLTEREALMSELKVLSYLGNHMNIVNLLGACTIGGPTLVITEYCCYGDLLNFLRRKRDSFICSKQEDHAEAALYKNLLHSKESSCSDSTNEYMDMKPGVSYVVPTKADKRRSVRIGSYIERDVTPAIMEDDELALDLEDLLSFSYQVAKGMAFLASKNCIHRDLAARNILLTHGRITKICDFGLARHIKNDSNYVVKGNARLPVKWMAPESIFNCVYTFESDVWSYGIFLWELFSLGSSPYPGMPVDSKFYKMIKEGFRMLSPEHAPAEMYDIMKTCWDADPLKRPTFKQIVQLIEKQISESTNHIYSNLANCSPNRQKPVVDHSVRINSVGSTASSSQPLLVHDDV

[37] = target: Activin receptor type-2B (Homo sapiens) (UniProt Q13705); details: Compound concentration 1000.0 nM
[38] = target: Serine/threonine-protein kinase D2 (Homo sapiens) (UniProt Q9BZL6); details: Compound concentration 1000.0 nM

Row | Compound | inhibition (Histamine H1 receptor) [%] | residual activity [1] [%] | residual activity [2] [%] | residual activity [3] [%] | residual activity [4] [%] | inhibition [5] [%] | residual activity [6] [%] | residual activity [7] [%] | residual activity [8] [%] | residual activity [9] [%] | residual activity [10] [%] | residual activity [11] [%] | residual activity [12] [%] | residual activity [13] [%] | inhibition [14] [%] | residual activity [15] [%] | residual activity [16] [%] | residual activity [17] [%] | inhibition [18] [%] | residual activity [19] [%] | further results
1 | CNCc1ccccc1-c1csc([C@H](C)Nc2nc(C)nc3cc(OC)c(OC)cc23)c1 [BAY-294] | 56.7 | 100 | 97 | 82 | 100 | 16 | 100 | 99 | 81 | 84 | 76 | 100 | 100 | 84 | 93.8 | 100 | 100 | 97 | 97.3 | 100 | residual activity [20]: 71%; residual activity [21]: 100%; residual activity [22]: 100%; residual activity [23]: 99%; residual activity [24]: 97%; residual activity [25]: 100%; residual activity [26]: 95%; residual activity [27]: 97%; residual activity [28]: 100%; residual activity [29]: 100%; residual activity [30]: 92%; residual activity [31]: 100%; residual activity [32]: 71%; residual activity [33]: 93%; residual activity [34]: 79%; residual activity [35]: 100%; residual activity [36]: 95%; residual activity [37]: 100%; residual activity [38]: 99%
2 | CNCc1ccccc1-c1csc([C@@H](C)Nc2nc(C)nc3cc(OC)c(OC)cc23)c1 [BAY-293] | 49.4 | 88 | 91 | 89 | 100 | 17.1 | 79 | 88 | 63 | 72 | 94 | 100 | 87 | 68 | 56.5 | 99 | 100 | 97 | 86.9 | 93 | residual activity [20]: 76%; residual activity [21]: 86%; residual activity [22]: 100%; residual activity [23]: 97%; residual activity [24]: 100%; residual activity [25]: 99%; residual activity [26]: 94%; residual activity [27]: 100%; residual activity [28]: 100%; residual activity [29]: 100%; residual activity [30]: 75%; residual activity [31]: 89%; residual activity [32]: 63%; residual activity [33]: 91%; residual activity [34]: 57%; residual activity [35]: 92%; residual activity [36]: 85%; residual activity [37]: 100%; residual activity [38]: 100%
